Assay results from US20110189686A1, “SCREENING FOR MODULATORS OF CYP2B15 AND/OR GPD1 FOR THE TREATMENT OF ACNE, OF SEBORRHOEIC DERMATITIS OR OF HYPERSEBORRHOEA” (Galderma Research & Development, priority 2008, published 2011).

Legend:
CYP2B15 [1] = assay: Real-time PCR of CYP2B15 expression in rat sebaceous gland (epidermal split) after topical PPARgamma agonist, kinetics; format: in vivo; conditions: topical 1% in acetone, female FUZZY rats, standardized to 18S, versus carrier group
Description: • Strain: Ico:HSd:FUZZY-fz • Gender: female • Age: 10 weeks Number per batch: 40 (8 animals per group) Treatment: Route of administration: topical • Compound/batch: PPARgamma agonists: • A: 5-{4-[2-(methylpyridin-2-ylamino)ethoxy]benzyl}thiazolidine-2,4-dione • B: 2-(methoxyethoxymethoxy)naphthalene-2-carboxylic acid [4′-(2,4-dioxothiazolidin-5-ylmethyl)biphenyl-3-ylmethyl]methylamide or rosiglitazone • C: (S)-2-ethoxy-3-{4-[6-(3-heptyl-1-methylureido)pyridin-2-yl]phenyl}propionic acid • Doses: 1% • Carrier: acetone (001) • Duration: 96 hours Method of evaluation: The animals are weighed at the beginning and at the end of the study. Skin biopsies are taken (6 samples of skin excised per rat) in order to analyze the expression of the genes (RNA extraction, reverse transcriptase and real-time PCR). The samples are stored at 4° C. overnight before incubation in 1 M sodium bromide (NaBr) for 2 hours at 37° C. After incubation, the samples are separated into epidermis or dermis. The epidermal samples are stored at […] Under these conditions, the sebaceous glands are in the epidermal split. PCRs are carried out, beginning with the cDNAs originating from the epidermal splits containing sebaceous glands from control rats or rats treated with a PPARγ agonist: the mRNA is extracted using a column and quantified. The quality of the mRNAs is measured and is represented by the 18S/28S ratio. The results are standardized with respect to 18S, expressed as relative induction versus untreated animals (carrier group). The statistical analysis is obtained using internal software based on a modified Monte Carlo statistical analysis.

GPD1 [2] = assay: Real-time PCR of GPD1 expression in rat sebaceous gland (epidermal split) after topical PPARgamma agonist, kinetics; format: in vivo; conditions: topical 1% in acetone, female FUZZY rats, standardized to 18S, versus carrier group
Procedure: Skin biopsies are taken (6 samples of skin excised per rat) in order to analyze the expression of the genes (RNA extraction, reverse transcriptase and real-time PCR). The samples are stored at 4° C. overnight before incubation in 1 M sodium bromide (NaBr) for 2 hours at 37° C. After incubation, the samples are separated into epidermis or dermis. The epidermal samples are stored at 20° C. Under these conditions, the sebaceous glands are in the epidermal split. PCRs are carried out, beginning with the cDNAs originating from the epidermal splits containing sebaceous glands from control rats or rats treated with a PPARγ agonist: the mRNA is extracted using a column and quantified. The quality of the mRNAs is measured and is represented by the 18S/28S ratio. The results are standardized with respect to 18S, expressed as relative induction versus untreated animals (carrier group). The statistical analysis is obtained using internal software based on a modified Monte Carlo statistical analysis.

CYP2B15 [3] = assay: Affymetrix transcriptome measurement of CYP2B15 expression in Fuzzy rat epidermal split after 8 days of topical treatment; conditions: topical 1%
Procedure: The studies are carried out in female Fuzzy rats (Hsd: FUZZY-fz) 10 weeks old at the beginning of the study. The animals are treated at a dose of 1% (PPARg agonist Rosiglitazone in solution in acetone) once a day for 8 days. Two hours after the final treatment, the animals are sacrificed by euthanasia and the skin on the back is removed. After incubation in dispase, the epidermis carrying the sebaceous glands is detached from the dermis (epidermal split). After grinding of the samples, the mRNA is prepared using Qiagen columns, in accordance with the suppliers' instructions. The material thus prepared is subjected to large-scale transcriptome analysis on an Affymetrix platform. The data are subsequently standardized and, after statistical analysis, the results produced are expressed in arbitrary expression units (see below) accompanied, for each piece of data, by a statistical value for presence of the transcript (presence=1; absence=0).

GPD1 [4] = assay: Affymetrix transcriptome measurement of GPD1 expression in Fuzzy rat epidermal split after 8 days of topical treatment; format: in vivo; conditions: GPD1 mRNA (1371363_at), female FUZZY rats, topical 1%, once a day for 8 days, control condition 66

CCCCCCCNC(=O)N(C)c1cccc(-c2ccc(C[C@H](OCC)C(=O)O)cc2)n1 [C, (S)-2-ethoxy-3-{4-[6-(3-heptyl-1-methylureido)pyridin-2-yl]phenyl}propionic acid]
CYP2B15 relative induction (CYP2B15 [1]; 0 hours): 1 | CYP2B15 relative induction (CYP2B15 [1]; 8 hours): 0.61 | CYP2B15 relative induction (CYP2B15 [1]; 24 hours): 0.18 | CYP2B15 relative induction (CYP2B15 [1]; 48 hours): 0.11 | CYP2B15 relative induction (CYP2B15 [1]; 96 hours): 0.04 | GPD1 relative induction (GPD1 [2]; 0 hours): 1 | GPD1 relative induction (GPD1 [2]; 8 hours): 7.59 | GPD1 relative induction (GPD1 [2]; 24 hours): 11.56 | GPD1 relative induction (GPD1 [2]; 48 hours): 7.50 | GPD1 relative induction (GPD1 [2]; 96 hours): 3.44

CN(CCOc1ccc(CC2SC(=O)NC2=O)cc1)c1ccccn1 (centres unmarked) [A, 5-{4-[2-(methylpyridin-2-ylamino)ethoxy]benzyl}thiazolidine-2,4-dione]
CYP2B15 relative induction (CYP2B15 [1]; 0 hours): 1 | CYP2B15 relative induction (CYP2B15 [1]; 8 hours): 1.56 | CYP2B15 relative induction (CYP2B15 [1]; 24 hours): 0.68 | CYP2B15 relative induction (CYP2B15 [1]; 48 hours): 0.29 | CYP2B15 relative induction (CYP2B15 [1]; 96 hours): 0.08 | GPD1 relative induction (GPD1 [2]; 0 hours): 1 | GPD1 relative induction (GPD1 [2]; 8 hours): 18.52 | GPD1 relative induction (GPD1 [2]; 24 hours): 12.53 | GPD1 relative induction (GPD1 [2]; 48 hours): 6.93 | GPD1 relative induction (GPD1 [2]; 96 hours): 3.42

CN(CCOc1ccc(CC2SC(=O)NC2=O)cc1)c1ccccn1 (centres unmarked) [Rosiglitazone]
Expression after treatment with 1% Rosiglitazone (CYP2B15 [3]; CYP2B15 mRNA (1387722_at), female FUZZY rats, once a day for 8 days, control condition 120): 35 arbitrary expression units | Significance of the expression after treatment with 1% Rosiglitazone (CYP2B15 [3]; CYP2B15 transcript presence indicator, 8 days): 1 | Expression after treatment with 1% Rosiglitazone (GPD1 [4]): 243 arbitrary expression units
